Test results reported in patent publication EP4796538A1, “NOVEL QUINOXALINE COMPOUNDS, MANUFACTURING METHOD THEREOF, AND USES THEREOF” (Gachon University of Industry-Academic Cooperation …, priority 2023, dated 2025).
Where two headings read alike, the source gives them in different places.

How the values were obtained:
RET (G810S/M918T) = target: T1, RET (G810S/M918T) (Homo sapiens, UniProt P07949, G810S/M918T); assay: Kinase panel inhibition, radiolabeled [γ-33P] ATP (Reaction Biology Corp); assay type: biochemical; conditions: ATP 1 µM; for remaining activity at 30 µM: compound at 30uM; for remaining activity at 10 µM: compound at 10 uM
T1 construct: purchased Reaction Biology Corp

RET-CCDC6 (PTC1) = target: T2, RET-CCDC6 (PTC1) (Homo sapiens, UniProt P07949); assay: as above; assay type: biochemical; conditions: ATP 1 µM; for remaining activity at 30 µM: compound at 30uM; for remaining activity at 10 µM: compound at 10 uM
T2 construct: purchased Reaction Biology Corp

A-549 = assay: Cell proliferation inhibition, Cell Counting Kit-8, non-small cell lung cancer cell line; assay type: cell-based; conditions: A-549 cell line; 72 hours incubation; test concentration not given
[1] = Data 1, read-out: % Enzyme Activity (relative to DMSO controls) RET (G810S/M918T) Data 1
[2] = Data 2, read-out: % Enzyme Activity (relative to DMSO controls) RET (G810S/M918T) Data 2
[3] = Data 1, read-out: % Enzyme Activity (relative to DMSO controls) RET-CCDC6 (PTC1) Data 1
[4] = Data 2, read-out: % Enzyme Activity (relative to DMSO controls) RET-CCDC6 (PTC1) Data 2

T2 sequence (P07949 whole entry, looked up): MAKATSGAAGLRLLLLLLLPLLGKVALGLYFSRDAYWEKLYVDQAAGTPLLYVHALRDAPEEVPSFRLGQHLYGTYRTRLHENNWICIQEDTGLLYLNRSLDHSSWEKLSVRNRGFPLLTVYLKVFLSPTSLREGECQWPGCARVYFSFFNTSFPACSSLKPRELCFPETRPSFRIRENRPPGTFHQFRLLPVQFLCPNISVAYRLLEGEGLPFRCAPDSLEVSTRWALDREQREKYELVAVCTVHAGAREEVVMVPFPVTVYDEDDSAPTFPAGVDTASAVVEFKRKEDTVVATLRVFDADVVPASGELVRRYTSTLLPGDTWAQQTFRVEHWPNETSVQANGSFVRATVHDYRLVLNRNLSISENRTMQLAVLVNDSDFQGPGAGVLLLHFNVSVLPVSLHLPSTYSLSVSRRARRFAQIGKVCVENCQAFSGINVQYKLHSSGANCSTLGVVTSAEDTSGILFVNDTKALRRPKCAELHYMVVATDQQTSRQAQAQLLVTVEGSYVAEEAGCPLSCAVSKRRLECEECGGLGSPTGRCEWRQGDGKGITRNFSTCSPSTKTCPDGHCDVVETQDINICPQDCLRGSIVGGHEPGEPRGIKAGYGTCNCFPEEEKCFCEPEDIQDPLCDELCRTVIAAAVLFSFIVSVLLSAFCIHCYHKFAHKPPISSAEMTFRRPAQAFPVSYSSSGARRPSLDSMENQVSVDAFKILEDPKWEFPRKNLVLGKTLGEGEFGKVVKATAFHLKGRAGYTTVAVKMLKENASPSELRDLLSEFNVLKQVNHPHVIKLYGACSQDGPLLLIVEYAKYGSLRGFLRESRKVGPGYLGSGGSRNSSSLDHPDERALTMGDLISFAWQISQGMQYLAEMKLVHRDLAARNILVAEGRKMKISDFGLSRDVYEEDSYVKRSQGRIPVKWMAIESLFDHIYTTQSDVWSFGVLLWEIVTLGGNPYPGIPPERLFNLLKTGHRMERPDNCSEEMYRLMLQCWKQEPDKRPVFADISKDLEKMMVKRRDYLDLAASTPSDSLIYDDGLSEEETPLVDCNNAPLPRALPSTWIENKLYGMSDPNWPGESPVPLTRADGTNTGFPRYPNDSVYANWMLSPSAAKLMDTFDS
T1 sequence (P07949 29-1114 G810S/M918T): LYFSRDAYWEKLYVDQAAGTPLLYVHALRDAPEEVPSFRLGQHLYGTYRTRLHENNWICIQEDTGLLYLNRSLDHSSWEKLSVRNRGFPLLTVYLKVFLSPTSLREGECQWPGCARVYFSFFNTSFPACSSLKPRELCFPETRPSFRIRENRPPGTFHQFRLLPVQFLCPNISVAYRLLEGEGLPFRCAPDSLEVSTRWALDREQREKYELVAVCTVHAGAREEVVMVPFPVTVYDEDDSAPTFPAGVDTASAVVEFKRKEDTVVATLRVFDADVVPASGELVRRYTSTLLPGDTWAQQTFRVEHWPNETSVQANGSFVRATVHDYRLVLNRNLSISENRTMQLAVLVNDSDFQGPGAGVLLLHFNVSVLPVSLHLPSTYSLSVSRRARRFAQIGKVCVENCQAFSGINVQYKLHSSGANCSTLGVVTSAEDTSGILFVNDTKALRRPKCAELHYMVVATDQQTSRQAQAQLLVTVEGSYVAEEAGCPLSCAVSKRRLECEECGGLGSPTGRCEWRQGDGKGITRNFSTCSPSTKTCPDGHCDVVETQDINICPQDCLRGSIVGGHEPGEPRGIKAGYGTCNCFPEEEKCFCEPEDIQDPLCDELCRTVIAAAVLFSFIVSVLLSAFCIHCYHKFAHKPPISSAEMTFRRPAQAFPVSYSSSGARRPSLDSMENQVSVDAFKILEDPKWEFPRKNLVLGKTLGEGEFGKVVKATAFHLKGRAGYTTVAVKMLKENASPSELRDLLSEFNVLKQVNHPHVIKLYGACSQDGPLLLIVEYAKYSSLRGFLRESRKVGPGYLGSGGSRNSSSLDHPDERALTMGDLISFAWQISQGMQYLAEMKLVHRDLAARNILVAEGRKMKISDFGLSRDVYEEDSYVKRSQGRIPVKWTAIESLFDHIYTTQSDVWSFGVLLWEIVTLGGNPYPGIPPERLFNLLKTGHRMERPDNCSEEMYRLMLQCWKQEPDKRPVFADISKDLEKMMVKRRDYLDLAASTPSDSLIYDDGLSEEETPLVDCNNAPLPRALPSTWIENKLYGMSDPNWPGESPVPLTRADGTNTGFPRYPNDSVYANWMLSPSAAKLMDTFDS

| remaining activity at 30 µM (RET (G810S/M918T); [1]) [%] | remaining activity at 30 µM (RET (G810S/M918T); [2]) [%] | remaining activity at 30 µM (RET-CCDC6 (PTC1); [3]) [%] | remaining activity at 30 µM (RET-CCDC6 (PTC1); [4]) [%] | remaining activity at 10 µM (RET-CCDC6 (PTC1); [3]) [%] | remaining activity at 10 µM (RET-CCDC6 (PTC1); [4]) [%] | remaining activity at 10 µM (RET (G810S/M918T); [1]) [%] | remaining activity at 10 µM (RET (G810S/M918T); [2]) [%] | SMILES | Cell Proliferation (% of control) (A-549) [%] |
| --- | --- | --- | --- | --- | --- | --- | --- | --- | --- |
| 20.8 | 21.7 | – | – | – | – | – | – | CCCCNc1cc(Br)c2nccnc2c1 [Intermediate Compound 21, 8-Bromo-N-butylquinoxalin-6-amine] | – |
| 53.5 | 54.1 | 20.9 | 19.4 | – | – | – | – | Nc1cc(-c2ccc(F)nc2)c2nccnc2c1 [Intermediate Compound 4, 8-(6-fluoropyridin-3-yl)quinoxalin-6-amine] | – |
| 40.8 | 39.1 | 13.2 | 13.3 | – | – | – | – | Nc1cc(-c2cnc(Cl)nc2)c2nccnc2c1 [Intermediate Compound 16, 8-(2-chloropyrimidin-5-yl)quinoxalin-6-amine] | – |
| 92.5 | 92.5 | – | – | – | – | – | – | O=C(Nc1cc(-c2ccc(F)nc2)c2nccnc2c1)c1ccccn1 [Intermediate Compound 14, N-(8-(6-Fluoropyridin-3-yl)quinoxalin-6-yl)picolinamide] | – |
| 49.4 | 48.9 | – | – | – | – | – | – | CC(C)CNc1cc(Br)c2nccnc2c1 [Intermediate Compound 22, 8-Bromo-N-isobutylquino xalin-6-amine] | – |
| 69.1 | 73.1 | 7.86 | 7.51 | – | – | – | – | CC(C)Nc1cc(Br)c2nccnc2c1 [Intermediate Compound 20, 8-Bromo-N-isopropylquin oxalin-6-amine] | – |
| 13.3 | 14.4 | 5.67 | 3.67 | – | – | – | – | CNc1cc(-c2ccc(F)nc2)c2nccnc2c1 [Intermediate Compound 5, 8-(6-fluoropyridin-3-yl)-N-methylquinoxalin-6-amine] | – |
| 100 | 96.4 | – | – | – | – | – | – | O=C(Nc1cc(Br)c2nccnc2c1)c1ccccn1 [Intermediate Compound 12, N-(8-Bromoquinoxalin-6-yl)picolinamide] | – |
| 24 | 22.3 | – | – | – | – | – | – | CCCNc1cc(-c2ccc(F)nc2)c2nccnc2c1 [Intermediate Compound 7] | – |
| 24.8 | 25.3 | – | – | – | – | – | – | CCCCNc1cc(-c2ccc(F)nc2)c2nccnc2c1 [Intermediate Compound 9, N-butyl-8-(6-fluoropyridin-3-yl)quinoxalin-6-amine] | – |
| 66.5 | 68.4 | 7.38 | 7.71 | – | – | – | – | CC(C)Nc1cc(-c2ccc(F)nc2)c2nccnc2c1 [Intermediate Compound 8, 8-(6-fluoropyridin-3-yl)-N-isopropylquin oxalin-6-amine] | – |
| 43.1 | 40.1 | – | – | – | – | – | – | CC(C)CNc1cc(-c2ccc(F)nc2)c2nccnc2c1 [Intermediate Compound 10, 8-(6-Fluoropyridin-3-yl)-N-isobutylquinoxalin-6-amine] | – |
| 27.6 | 28.3 | – | – | – | – | – | – | CCCNc1cc(Br)c2nccnc2c1 [Intermediate Compound 19, 8-Bromo-N-propylquinoxalin-6-amine] | – |

More lines, now with the values behind:

| SMILES | remaining activity at 30 µM (RET (G810S/M918T); [1]) [%] | remaining activity at 30 µM (RET (G810S/M918T); [2]) [%] | remaining activity at 30 µM (RET-CCDC6 (PTC1); [3]) [%] | remaining activity at 30 µM (RET-CCDC6 (PTC1); [4]) [%] | remaining activity at 10 µM (RET-CCDC6 (PTC1); [3]) [%] | remaining activity at 10 µM (RET-CCDC6 (PTC1); [4]) [%] | remaining activity at 10 µM (RET (G810S/M918T); [1]) [%] | remaining activity at 10 µM (RET (G810S/M918T); [2]) [%] | Cell Proliferation (% of control) (A-549) [%] |
| --- | --- | --- | --- | --- | --- | --- | --- | --- | --- |
| O=C(Nc1cc(-c2ccc(N3CC[C@H](NC(=O)c4ccccc4F)C3)nc2)c2nccnc2c1)c1ccco1 [Example 17, (S)-N-(8-(6-(3-(2-fluorobenzamido)pyrrolidin-1-yl)pyridin-3-yl)quinoxalin-6-yl)furan-2-carboxamide] | – | – | – | – | 1.15 | 1.33 | 11.9 | 11.9 | 48.96 |
| Nc1cc(-c2ccc(N3CCN(c4ccccn4)CC3)nc2)c2nccnc2c1 [Example 23, 8-(6-(4-(pyridin-2-yl)piperazin-1-yl)pyridin-3-yl)quinoxalin-6-amine] | – | – | – | – | 1.92 | 2.29 | 9.23 | 9.45 | 78.36 |
| CCNc1cc(-c2ccc(N3CCN(Cc4ccc(Br)cc4)CC3)nc2)c2nccnc2c1 [Example 26, 8-(6-(4-(4-bromobenzyl)piperazin-1-yl)pyridin-3-yl)-N-ethylquinoxalin-6-amine] | – | – | – | – | 0.94 | 1.32 | 1.23 | 1.3 | 79.51 |
| O=C(Nc1cc(-c2ccc(N3CC[C@H](NC(=O)c4ccccc4F)C3)nc2)c2nccnc2c1)c1ccccn1 [Example 18, (S)-N-(8-(6-(3-(2-fluorobenzamido)pyrrolidin-1-yl)pyridin-3-yl)quinoxalin-6-yl)picolinamide] | – | – | – | – | 1.9 | 2.31 | 24.7 | 25.5 | 35.32 |
| CCCCNc1cc(-c2ccc(N3CC[C@H](NC(=O)c4ccccc4F)C3)nc2)c2nccnc2c1 [Example 15, (S)-N-(1-(5-(7-(butylamino)quinoxalin-5-yl)pyridin-2-yl)pyrrolidin-3-yl)-2-fluorobenzamide] | – | – | – | – | 1.08 | 1.1 | -0.06 | -0.2 | 51.55 |
| Nc1cc(-c2ccc(N3CCOCC3)nc2)c2nccnc2c1 [Example 19, 8-(6-morpholinopyridin-3-yl)quinoxalin-6-amine] | – | – | – | – | 5.69 | 6.45 | 27.3 | 26.3 | 71.46 |
| CCCNc1cc(-c2ccc(N3CC(Oc4cccc(F)c4)C3)nc2)c2nccnc2c1 [Example 4, 8-(6-(3-(3-fluorophenoxy)azetidin-1-yl)pyridin-3-yl)-N-propylquinoxalin-6-amine] | – | – | – | – | 1.11 | 1.31 | -0.23 | 0.04 | 43.59 |
| CCS(=O)(=O)N1CCN(c2ccc(-c3cc(N)cc4nccnc34)cn2)CC1 [Example 22, 8-(6-(4-(ethylsulfonyl)piperazin-1-yl)pyridin-3-yl)quinoxalin-6-amine] | – | – | – | – | 2.9 | 3.03 | 15.7 | 15.1 | 68.42 |
| CC(C)CNc1cc(-c2ccc(N3CC[C@H](NC(=O)c4ccccc4F)C3)nc2)c2nccnc2c1 [Example 16, (S)-2-fluoro-N-(1-(5-(7-(isobutylamino)quinoxalin-5-yl)pyridin-2-yl)pyrrolidin-3-yl)benzamide] | – | – | – | – | 1.21 | 1.51 | 3.39 | 3.22 | 65.29 |
| Nc1cc(-c2ccc(N3CCC(N4CCOCC4)CC3)nc2)c2nccnc2c1 [Example 25, 8-(6-(4-morpholinopiperidin-1-yl)pyridin-3-yl)quinoxalin-6-amine] | – | – | – | – | 18.3 | 20.4 | 46.8 | 45.2 | 75.52 |
